The IC50 is the concentration at which inhibition is half-maximal. What is called IC90 is the point of the concentration-response curve where the effect stands at 90%.

Data set [1] deals with human CD45+ cells (granulocytes-based progenitor cells). In words: Colony forming test on granulocytes-based myelopoiesis progenitor cells, human CD45+ bone marrow cells of humanized Tg-NOG mouse. The format is cell-based. As to conditions: for influence on the granulocytes-based progenitor cells in the bone marrow, human vs mouse: colony forming test, comparison hCD45+ vs mCD45+; for IC50: concentration at which formation of 50% of granulocyte-derived colonies is inhibited, read-out: IC50 (nM) hCD45+; for IC50 / IC90: cultured 16 days; for IC90: concentration at which formation of 90% of granulocyte-derived colonies is inhibited, read-out: IC90 (nM) hCD45+. From the text: (§1) The mouse at week 14 after the transplantation of the hCD34^+ cells derived from the human cord blood was euthanized by removing the blood from the abdominal aorta under anesthesia of isoflurane. Then, the femur was collected. The femur was sterilely washed using the Iscove's Modified Dulbecco's Medium (IMDM, available from Life Technologies) to prepare a suspension of cells. The suspension of cells was passed through a nylon filter (pore size of 35 μm, Cell Strainer, available from BD Biosciences) to obtain a filtrate as a solution of the bone marrow cells. A portion of the solution of the bone marrow cells was subjected to FACS analysis to calculate a ratio between the human-derived leucocytes (hCD45^+) and the mouse-derived leucocytes (mCD45^+).
The human 45^+ cells were suspended in a methyl cellulose medium (MethoCult H4534, available from Stem cell technologies) so as to be 5×10^4 cells/1.1 mL/dish. Then, EHC was added at 0.14 nM, 0.4 nM, 1.2 nM, 3.7 nM, 11 nM, or 33 nM. Meanwhile, PTX was added at 0.12 nM, 0.4 nM, 1.1 nM, 3.3 nM, 10 nM, 30 nM, or 90 nM. The resultant was seeded in a dish and was cultured for 16 days at 37° C. under 5% CO2.
(§2) As the vehicle control, dimethyl sulfoxide (DMSO, final concentration of 0.002 v/v %) was used. For each concentration, two dishes were used.
(§3) After a period of the cultivation was completed, the number of the colonies derived from the granulocytes formed was counted and an average number of the colonies in each concentration was calculated. An average number of the colonies in the vehicle control was considered as 100%. The average number of the colonies in each concentration was considered as a relative value (IC50 and IC90). Here, the IC50 means a concentration at which formation of 50% of the colonies is inhibited and the IC90 means a concentration at which formation of 90% of the colonies is inhibited.
(§4) The collection, preparation, and cultivation of the bone marrow cells and the calculation of the percentage of inhibition of colony formation were performed in the same manner as in Example 3-1.
The human CD45^+ cells were exposed to nogitecan at an exposure concentration of 0.41 nM, 1.2 nM, 3.7 nM, 11.1 nM, 33.3 nM, or 100 nM. Meanwhile, the other human CD45^+ cells were exposed to oxaliplatin at an exposure concentration of 123 nM, 370 nM, 1,111 nM, 3,333 nM, 10,000 nM, or 30,000 nM.
(§5) A physiological saline solution was used for the vehicle control of nogitecan and a distilled water was used for the vehicle control of oxaliplatin.
(§6) An average number of the colonies in the vehicle control was considered as 100%. The average number of the colonies in each concentration was considered as a relative value (IC50 and IC90). Here, the IC50 means a concentration at which formation of 50% of the colonies is inhibited and the IC90 means a concentration at which formation of 90% of the colonies is inhibited.

Data set [2] concerns mouse CD45+ cells (granulocytes-based progenitor cells). The experiment in a line: Colony forming test on granulocytes-based myelopoiesis progenitor cells, mouse CD45+ bone marrow cells of humanized Tg-NOG mouse. To be noted: cultured 8 days; for IC50: concentration at which formation of 50% of granulocyte-derived colonies is inhibited, read-out: IC50 (nM) mCD45+; for IC90: concentration at which formation of 90% of granulocyte-derived colonies is inhibited, read-out: IC90 (nM) mCD45+. It is filed as cell-based.
Excerpt: as §1
The mouse CD45^+ cells were suspended in a methyl cellulose medium (available from MethoCult GF M3534, Stem cell technologies) so as to be 2×10^4 cells/1.1 mL/dish. Then, EHC (1.2 nM, 3.7 nM, 11 nM, 33 nM, 100 nM, or 300 nM) was added. Meanwhile, PTX (0.12 nM, 0.4 nM, 1.1 nM, 3.3 nM, 10 nM, 30 nM, or 90 nM) was added. The resultant was seeded in a dish and was cultured for 8 days at 37° C. under 5% CO2.
as §2, §3, §4
The mouse CD45^+ cells were exposed to nogitecan at an exposure concentration of 3.7 nM, 11.1 nM, 33.3 nM, 100 nM, 300 nM, or 900 nM. Meanwhile, the other mouse CD45^+ cells were exposed to oxaliplatin at an exposure concentration of 13.7 nM, 41.2 nM, 123 nM, 370 nM, or 1,111 nM.
as §5, §6

Data set [3] relates to human-derived leucocytes (hCD45+) and human-derived granulocytes (hCD66b+). It is filed as in vivo. To be noted: oxaliplatin 20 mg/kg single intravenous. The procedure: (§7) Six-week-old Tg-NOG mice (24 females) were irradiated with X-rays of 2.5 Gy. After a period of from 3 hours to 4 hours, the CD34^+ cells derived from the human cord blood were transplanted at 40,000 cells/body. At 5 week after the transplantation, the peripheral blood was collected from the orbital sinus under anesthesia of isoflurane. Engraftment thereof in the peripheral blood was confirmed.
(§8) Eleven mice suitable for the evaluation were selected and divided into the control group (5 mice) and the oxaliplatin administration group (6 mice). The mice in the control group received a 5 w/v % glucose solution from the tail vein through single intravenous administration. Meanwhile, two mice of the 6 mice in the oxaliplatin administration group received oxaliplatin at 20 mg/kg (2 mg/mL, 10 mL/kg), another two mice in the oxaliplatin administration group received oxaliplatin at 30 mg/kg (3 mg/mL, 10 mL/kg), and the other two mice in the oxaliplatin administration group received oxaliplatin at 40 mg/kg (4 mg/mL, 10 mL/kg) from the tail vein through single intravenous administration. Regarding assignment of the animals, the animals were grouped so that an average value of the number of the human leucocytes and that of the number of the human granulocytes were almost the same.
(§9) The peripheral blood was collected from the orbital sinus under anesthesia of isoflurane at day 4, day 7, day 14, day 17, day 21, and day 28 after the administration. Then, the number of the leucocytes in the peripheral blood was measured with FACS. The animals administered at 30 mg/kg and the animals administered at 40 mg/kg died by day 7 after the administration.

The test system of data set [4] is mouse-derived leucocytes (mCD45+) and mouse-derived granulocytes (mGr-1+). The format is in vivo. As to conditions: oxaliplatin 20 mg/kg single intravenous. The procedure:
as §7, §8, §9

Another data set has as its system Tg-NOG mouse. The experiment in a line: Survival and general condition of humanized Tg-NOG mice after single intravenous administration. The format is in vivo. The procedure:
as §7, §8, §9

The mark [5] stands for this setting: Homo sapiens, Bone marrow cell, 384 h.
Where [6] appears, read: Mus musculus, Bone marrow cell, 192 h.

Like-named read-outs stand apart in the source and are kept apart here. Some results are limits rather than exact numbers.

Consider `CCc1c2c(nc3ccc(O)cc13)-c1cc3c(c(=O)n1C2)COC(=O)[C@]3(O)CC` [EHC, 7-Ethyl-10-hydroxycamptothecin], for which, in data set [1], the “influence on the granulocytes-based progenitor cells in the bone marrow, human vs mouse” value (shortened to “influence … vs mouse”) is “higher in the human than in the mouse”; the concentration for half-maximal inhibition (IC50) turned out to be 11.3 nM; the IC90 worked out at 12.9 nM. Further, in data set [2], the IC50 was 106 nM and the IC90 came out at 122 nM.

Turning to `CC(=O)O[C@H]1C(=O)[C@@]2(C)[C@H]([C@H](OC(=O)c3ccccc3)[C@]3(O)C[C@H](OC(=O)[C@H](O)[C@@H](NC(=O)c4ccccc4)c4ccccc4)C(C)=C1C3(C)C)[C@]1(OC(C)=O)CO[C@@H]1C[C@@H]2O` [PTX, paclitaxel], in data set [1] (setting [5]), the IC50 is 83.9 nM and the IC90 stood at 84.5 nM. Also, the “influence … vs mouse” value in data set [1] is “almost the same between the human and the mouse”. Besides, in data set [2] (setting [6]), the IC50 worked out at 71.2 nM and the IC90 is 87.5 nM.

Turning to `CC[C@@]1(O)C(=O)OCc2c1cc1n(c2=O)Cc2cc3c(CN(C)C)c(O)ccc3nc2-1` [Nogitecan, nogitecan], the figures for the IC50 in data set [1] (setting [5]) and in data set [2] (setting [6]) were 8.7 nM and 142 nM, respectively. Further, the IC90 in data set [1] (setting [5]) was determined as 24.3 nM; in data set [2] (setting [6]), 305 nM. Moreover, the “influence … vs mouse” value in data set [1] is “higher in the human than in the mouse”.

For the compound `O=C1[O][Pt]2([NH][C@@H]3CCCC[C@H]3[NH]2)[O]C1=O` [Oxaliplatin, oxaliplatin], in data set [1], the “influence … vs mouse” value was “higher in the mouse than in the human”; the IC50 stood at 2770 nM; the concentration for an effect of 90% (IC90) was found to be 4660 nM. In data set [2], the IC50 was 434 nM and the concentration for an effect of 90% (IC90) came to 846 nM. In data set [3], the “change of human leucocytes in peripheral blood” value is “no considerable reduction” and the “day from which tendency of recovering of human-derived granulocytes was presented” value was at least 7 days. In data set [3] (day 4 after the administration), the “change of human-derived granulocytes” value is recorded as “slightly decreased”. For the same compound, in data set [3] (human vs mouse leucocytes), the “difference between species: influence on the reduction in the leucocytes” value is recorded as “more strongly developed in the human than in the mouse”. Also, in data set [4], the “change of mouse-derived leucocytes (mCD45+) and mouse-derived granulocytes (mGr-1+)” value is reported as “considerably decreased”. In the data set with Tg-NOG mouse (oxaliplatin 20 mg/kg single intravenous, day 17 after the administration), the “general condition of animals” value was “moribund condition”. Moreover, the “death of animals, day after the administration” value in the data set on Tg-NOG mouse (oxaliplatin 30 mg/kg single intravenous) is at most 7 days. Also, in the data set on Tg-NOG mouse (oxaliplatin 40 mg/kg single intravenous), the “death of animals, day after the administration” value was at most 7 days.

For the origin of these results see US20180289840A1, “Method for Evaluating Hematological Toxicity of Drug Under Evaluation, and Model for Evaluating Hematological Toxicity of Drug Under Evaluation” (Central Institute for Experimental Animals, priority 2015, published 2018).
